Measurements reported in patent US11000033B2, “Ketone or oxime compound, and herbicide” (NISSAN CHEMICAL CORPORATION, priority 2014, dated 2021).

How the values were obtained:
Type in all cases: in vivo
Amaranthus retroflexus [1] = assay: Test Example 5: herbicidal effect by foliage application, plastic box (symbol N); settings: 320 g/ha, 3 weeks after application
Outline: (§1)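 Leaf-applied emulsion, water-diluted to a preset herbicide dose, on two-week-old seedlings raised in a 25° C. to 30° C. greenhouse; injury rated at 3 weeks using earlier criteria.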

Scirpus juncoides = assay: Test Example 2: herbicidal activity, application during weed generation in submerged conditions (symbol B); settings: Table 23; application herbicide amount 320 g/ha; grade 0-5 by criteria of Test Example 1
Outline: (§2)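 Read-out: herbicidal effect on each species rated on a visual scale 3 weeks after treatment. Plants were raised together from seed in flooded alluvial soil (4 cm water) at 25° C. to 30° C. and treated at one to two leaves by water-surface application of diluted emulsion.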

beet [2] = assay: Test Example 5: effect on crop by foliage application, plastic box (symbol f); settings: 320 g/ha, 3 weeks after application
Outline: (§3)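 Greenhouse culture at 25° C. to 30° C. followed spot-like sowing into sterilized diluvial soil, with seed covered by roughly 1.5 cm of soil.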

Chenopodium album [3] = assay: Test Example 5: herbicidal effect by foliage application, plastic box (symbol O); settings: 320 g/ha, 3 weeks after application
Outline: as §1

wheat = assay: Test Example 4: effect on crop by soil treatment (symbol e); settings: for Effect on crop grade, e: wheat: application herbicide amount 320 g/ha
Outline: (§4)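 Soil-treatment setup: crop and weed seeds were spot-sown into sterilized diluvial soil, then buried beneath approximately 1.5 cm of it, and the boxes were housed in a 25–30° C. greenhouse.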

[4] = test system: Echinochloa oryzacola Vasing.; assay: Test Example 2: herbicidal activity, application during weed generation in submerged conditions (symbol A); settings: Table 23; application herbicide amount 320 g/ha; grade 0-5 by criteria of Test Example 1
Outline: as §2

Amaranthus retroflexus [5] = assay: Test Example 4: herbicidal effect by soil treatment (symbol N); settings: for Herbicidal effect grade, N: Amaranthus retroflexus: application herbicide amount 320 g/ha
Outline: (§5)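 Seeds were sown in sterilized diluvial soil, covered with about 1.5 cm of soil, and the soil surface was sprayed with a water-diluted emulsion of the compound at a predetermined rate. Plants grew in a greenhouse at 25° C. to 30° C.; effects were scored visually 3 weeks after application.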

Stellaria media = assay: Test Example 5: herbicidal effect by foliage application, plastic box (symbol P); settings: 320 g/ha, 3 weeks after application
Outline: as §1

Cyperus difformis = assay: Test Example 3: herbicidal effect by foliage application, Wagner pot (symbol E); settings: application herbicide amount 320 g/ha; for E herbicidal effect grade: Table 24
Outline: (§6)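 Scoring took place 3 weeks after application, using fixed criteria. Plants had been raised from seed for 14 days at 25 to 30 °C in submerged alluvial soil before a diluted emulsion of the test compound was sprayed uniformly on the leaves.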

Chenopodium album [6] = assay: Test Example 4: herbicidal effect by soil treatment (symbol O); settings: for Herbicidal effect grade, O: Chenopodium album: application herbicide amount 320 g/ha
Outline: as §5

Alopecurus myosuroides = assay: Test Example 4: herbicidal effect by soil treatment (symbol J); settings: for Herbicidal effect grade, J: Alopecurus myosuroides: application herbicide amount 320 g/ha
Outline: as §5

[7] = test system: Echinochloa crus-galli var. crus-galli; assay: Test Example 4: herbicidal effect by soil treatment (symbol H); settings: for Herbicidal effect grade, H: Echinochloa crus-galli var. crus-galli: application herbicide amount 320 g/ha
Outline: as §5

rice plant = assay: Test Example 5: effect on crop by foliage application, plastic box (symbol b); settings: 320 g/ha, 3 weeks after application
Outline: as §3

beet [8] = assay: Test Example 4: effect on crop by soil treatment (symbol f); settings: for Effect on crop grade, f: beet: application herbicide amount 320 g/ha
Outline: as §4

Abutilon theophrasti = assay: Test Example 5: herbicidal effect by foliage application, plastic box (symbol M); settings: 320 g/ha, 3 weeks after application
Outline: as §1

Lolium multiflorum Lam. = assay: Test Example 4: herbicidal effect by soil treatment (symbol K); settings: for Herbicidal effect grade, K: Lolium multiflorum Lam.: application herbicide amount 320 g/ha
Outline: as §5

Veronica persica = assay: Test Example 5: herbicidal effect by foliage application, plastic box (symbol R); settings: 320 g/ha, 3 weeks after application
Outline: as §1

Setaria viridis = assay: Test Example 5: herbicidal effect by foliage application, plastic box (symbol G); settings: 320 g/ha, 3 weeks after application
Outline: as §1

[9] = test system: Echinochloa crus-galli var. crus-galli; assay: Test Example 3: herbicidal effect by foliage application, Wagner pot (symbol H); settings: application herbicide amount 320 g/ha; for H (Echinochloa crus-galli var. crus-galli) herbicidal effect grade: Table 24
Outline: as §6

soybean = assay: Test Example 4: effect on crop by soil treatment (symbol d); settings: for Effect on crop grade, d: soybean: application herbicide amount 320 g/ha
Outline: as §4

Compound | Herbicidal effect grade, B: Scirpus juncoides (Scirpus juncoides) | Herbicidal effect grade, A: Echinochloa oryzacola Vasing. [4] | N: Amaranthus retroflexus, herbicidal effect grade (Amaranthus retroflexus [1]) | f: beet, effect on crop grade (beet [2]) | O: Chenopodium album, herbicidal effect grade (Chenopodium album [3]) | Effect on crop grade, e: wheat (wheat) | Herbicidal effect grade, N: Amaranthus retroflexus (Amaranthus retroflexus [5]) | P: Stellaria media, herbicidal effect grade (Stellaria media) | E herbicidal effect grade (Cyperus difformis) | Herbicidal effect grade, O: Chenopodium album (Chenopodium album [6]) | Herbicidal effect grade, J: Alopecurus myosuroides (Alopecurus myosuroides) | Herbicidal effect grade, H: Echinochloa crus-galli var. crus-galli [7] | b: directly sowed rice plant, effect on crop grade (rice plant) | Effect on crop grade, f: beet (beet [8]) | M: Abutilon theophrasti, herbicidal effect grade (Abutilon theophrasti) | Herbicidal effect grade, K: Lolium multiflorum Lam. (Lolium multiflorum Lam.) | R: Veronica persica, herbicidal effect grade (Veronica persica) | G: Setaria viridis, herbicidal effect grade (Setaria viridis) | H (Echinochloa crus-galli var. crus-galli) herbicidal effect grade [9] | Effect on crop grade, d: soybean (soybean) | further results
CON=C(C)CC1CC(OC(=O)CN(C)C(=O)c2ccccc2)=C(c2c(C)cc(C)cc2C)C1=O (centres unmarked) [1-139] | 4 (Herbicidal ratio of 70% or higher and lower than 90%) | 5 (Herbicidal ratio of 90% or more (almost completely withered)) |  |  |  |  |  |  |  |  |  |  |  |  |  |  |  |  |  |  | N: Amaranthus retroflexus, herbicidal effect (criteria 0-5) (Amaranthus retroflexus [1]): 0 (Herbicidal ratio of 5% or lower (almost no effect)); f: beet, effect on crop (criteria 0-5) (beet [2]): 0 (Herbicidal ratio of 5% or lower (almost no effect)); O: Chenopodium album, herbicidal effect (criteria 0-5) (Chenopodium album [3]): 1 (Herbicidal ratio of 5% or higher and lower than 20%); e: wheat, effect grade on crop (wheat; 320 g/ha): 3 (Herbicidal ratio of 40% or higher and lower than 70%); N: Amaranthus retroflexus, herbicidal effect grade (Amaranthus retroflexus [5]; 320 g/ha): 3 (Herbicidal ratio of 40% or higher and lower than 70%); P: Stellaria media, herbicidal effect (criteria 0-5) (Stellaria media): 3 (Herbicidal ratio of 40% or higher and lower than 70%); herbicidal effect on E, grade 0-5 (Cyperus difformis): 5 (Herbicidal ratio of 90% or more (almost completely withered)); O: Chenopodium album, herbicidal effect grade (Chenopodium album [6]; 320 g/ha): 0 (Herbicidal ratio of 5% or lower (almost no effect)); J: Alopecurus myosuroides, herbicidal effect grade (Alopecurus myosuroides; 320 g/ha): 5 (Herbicidal ratio of 90% or more (almost completely withered)); H: Echinochloa crus-galli var. crus-galli, herbicidal effect grade ([7]; 320 g/ha): 5 (Herbicidal ratio of 90% or more (almost completely withered)); b: directly sowed rice plant, effect on crop (criteria 0-5) (rice plant): 5 (Herbicidal ratio of 90% or more (almost completely withered)); f: beet, effect grade on crop (beet [8]; 320 g/ha): 0 (Herbicidal ratio of 5% or lower (almost no effect)); M: Abutilon theophrasti, herbicidal effect (criteria 0-5) (Abutilon theophrasti): 2 (Herbicidal ratio of 20% or higher and lower than 40%); K: Lolium multiflorum Lam., herbicidal effect grade (Lolium multiflorum Lam.; 320 g/ha): 5 (Herbicidal ratio of 90% or more (almost completely withered)); R: Veronica persica, herbicidal effect (criteria 0-5) (Veronica persica): 2 (Herbicidal ratio of 20% or higher and lower than 40%); G: Setaria viridis, herbicidal effect (criteria 0-5) (Setaria viridis): 5 (Herbicidal ratio of 90% or more (almost completely withered)); herbicidal effect on H (Echinochloa crus-galli var. crus-galli), grade 0-5 [9]: 5 (Herbicidal ratio of 90% or more (almost completely withered)); d: soybean, effect grade on crop (soybean; 320 g/ha): 0 (Herbicidal ratio of 5% or lower (almost no effect))
CC#Cc1cc(C)c(C2=C(O)CC(CC(=NOC)C(C)C)C2=O)c(C)c1 (centres unmarked) [9-006] | 4 (Herbicidal ratio of 70% or higher and lower than 90%) | 5 (Herbicidal ratio of 90% or more (almost completely withered)) | 0 (Herbicidal ratio of 5% or lower (almost no effect)) | 0 (Herbicidal ratio of 5% or lower (almost no effect)) | 2 (Herbicidal ratio of 20% or higher and lower than 40%) | 5 (Herbicidal ratio of 90% or more (almost completely withered)) | 2 (Herbicidal ratio of 20% or higher and lower than 40%) | 3 (Herbicidal ratio of 40% or higher and lower than 70%) | 5 (Herbicidal ratio of 90% or more (almost completely withered)) | 0 (Herbicidal ratio of 5% or lower (almost no effect)) | 5 (Herbicidal ratio of 90% or more (almost completely withered)) | 5 (Herbicidal ratio of 90% or more (almost completely withered)) | 5 (Herbicidal ratio of 90% or more (almost completely withered)) | 0 (Herbicidal ratio of 5% or lower (almost no effect)) | 0 (Herbicidal ratio of 5% or lower (almost no effect)) | 5 (Herbicidal ratio of 90% or more (almost completely withered)) | 4 (Herbicidal ratio of 70% or higher and lower than 90%) | 5 (Herbicidal ratio of 90% or more (almost completely withered)) | 5 (Herbicidal ratio of 90% or more (almost completely withered)) | 0 (Herbicidal ratio of 5% or lower (almost no effect)) | 
CON=C(CC1CC(O)=C(c2c(C)cc(-n3cc(Cl)cn3)cc2C)C1=O)C1CC1 (centres unmarked) [9-007] | 4 (Herbicidal ratio of 70% or higher and lower than 90%) | 5 (Herbicidal ratio of 90% or more (almost completely withered)) | 0 (Herbicidal ratio of 5% or lower (almost no effect)) | 0 (Herbicidal ratio of 5% or lower (almost no effect)) | 3 (Herbicidal ratio of 40% or higher and lower than 70%) | 0 (Herbicidal ratio of 5% or lower (almost no effect)) | 0 (Herbicidal ratio of 5% or lower (almost no effect)) | 3 (Herbicidal ratio of 40% or higher and lower than 70%) | 5 (Herbicidal ratio of 90% or more (almost completely withered)) | 0 (Herbicidal ratio of 5% or lower (almost no effect)) | 5 (Herbicidal ratio of 90% or more (almost completely withered)) | 3 (Herbicidal ratio of 40% or higher and lower than 70%) | 5 (Herbicidal ratio of 90% or more (almost completely withered)) | 0 (Herbicidal ratio of 5% or lower (almost no effect)) | 0 (Herbicidal ratio of 5% or lower (almost no effect)) | 5 (Herbicidal ratio of 90% or more (almost completely withered)) | 4 (Herbicidal ratio of 70% or higher and lower than 90%) | 5 (Herbicidal ratio of 90% or more (almost completely withered)) | 5 (Herbicidal ratio of 90% or more (almost completely withered)) | 0 (Herbicidal ratio of 5% or lower (almost no effect)) | 
CC#Cc1cc(C)c(C2=C(O)CC(CC(=NOC)C3CC3)C2=O)c(C)c1 (centres unmarked) [9-008] | 4 (Herbicidal ratio of 70% or higher and lower than 90%) | 5 (Herbicidal ratio of 90% or more (almost completely withered)) | 0 (Herbicidal ratio of 5% or lower (almost no effect)) | 0 (Herbicidal ratio of 5% or lower (almost no effect)) | 3 (Herbicidal ratio of 40% or higher and lower than 70%) | 5 (Herbicidal ratio of 90% or more (almost completely withered)) | 4 (Herbicidal ratio of 70% or higher and lower than 90%) | 4 (Herbicidal ratio of 70% or higher and lower than 90%) | 5 (Herbicidal ratio of 90% or more (almost completely withered)) | 0 (Herbicidal ratio of 5% or lower (almost no effect)) | 5 (Herbicidal ratio of 90% or more (almost completely withered)) | 5 (Herbicidal ratio of 90% or more (almost completely withered)) | 5 (Herbicidal ratio of 90% or more (almost completely withered)) | 0 (Herbicidal ratio of 5% or lower (almost no effect)) | 4 (Herbicidal ratio of 70% or higher and lower than 90%) | 5 (Herbicidal ratio of 90% or more (almost completely withered)) | 4 (Herbicidal ratio of 70% or higher and lower than 90%) | 5 (Herbicidal ratio of 90% or more (almost completely withered)) | 5 (Herbicidal ratio of 90% or more (almost completely withered)) | 0 (Herbicidal ratio of 5% or lower (almost no effect)) | 
